Assay results: US10604489B2, “Compounds for the treatment of pain” (priority 2018, dated 2020)
Structures can show the parent of a compound that is named as a salt. Where two headings read alike, the source gives them in different places.

Legend:
μ-receptor [1] = molecular target: T1, μ-receptor (Homo sapiens (Human), UniProt P35372); test: Alternate receptor binding assay, competitive displacement of [3H]DAMGO; conditions: alternate assay: 0.8 nM [3H]DAMGO, 5 mM MgCl2, CHO cell membrane protein, 120 min
human μ opioid receptor [2] = molecular target: T2, human μ opioid receptor (Homo sapiens (Human), UniProt P35372); test: Alternate functional activity ([35S]GTPγS binding) assay, SPA beads; assay type: biochemical; conditions: alternate assay: [35S]GTPγS 0.020 nM, CHO cell membranes with WGA PVT SPA beads
Experimental: The [^35S]GTPγS assay measures the functional properties of a compound by quantifying the level of G-protein activation following agonist binding in studies using stably transfected cells, and is considered to be a measure of the efficacy of a compound. Membranes from CHO (Chinese Hamster Ovary) cells that stably expressed one type of the cloned human opioid receptor human were used in the experiments. The assay buffer consisted of 50 mM Tris-HCl, pH 7.4, 3 mM MgCl2, 0.2 mM EGTA, 5 μM GDP, and 100 mM NaCl. CHO cell membranes stably expressing the human p opioid receptor were pre-incubated with scintillation proximity assay beads from PerkinElmer® (WGA PVT SPA) for 30 minutes, at 8 µg membrane and […] beads in a volume of 0.1 mL per reaction. In a final volume of 0.2 mL, 11 different concentrations of each test compound were incubated with the membrane-SPA bead mixture and a final concentration of 0.020 nM [35S]GTPγS for 1.5 hours with gentle shaking. Reactions were then incubated for 5 hours. Data are the mean EC50 values ±S.E.M. EC50 values (nM) for compounds 12, 16, 19, 20, 149, 151, 152, 157, 160, 161, 164-169, 172, 173, 180-197, and 199-207 are shown in Table 1.

Male Sprague-Dawley rats [3] = test: animal or person; assay type: in vivo, rat; conditions: rat, read-out: MEMD SC CFA
human μ opioid receptor [4] = molecular target: T2, human μ opioid receptor; test: Functional activity ([35S]GTPγS binding); assay type: biochemical; conditions: [35S]GTPγS 0.080 nM, CHO cell membranes, 60 min at 30° C., filtration
Summary of the method: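 Membranes from stably transfected CHO cells (7.5 μg) incubated with 12 test-compound concentrations and 0.080 nM [35S]GTPγS in 50 mM Tris-HCl pH 7.4, 3 mM MgCl2, 0.2 mM EGTA, 3 μM GDP, 100 mM NaCl, 60 min at 30° C. Nonspecific binding defined with 10 μM GTPγS; bound label collected by filtration and scintillation counting.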

μ-receptor [5] = molecular target: T1, μ-receptor; test: Receptor binding, competitive displacement of [3H]DAMGO; conditions: 0.25 nM [3H]DAMGO, CHO cell membrane protein, 60 min at 25° C.
Summary of the method: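 Membranes from CHO cells stably expressing cloned human μ-opioid receptor incubated 60 min at 25 °C with 12 compound concentrations and 0.25 nM [3H]DAMGO in 50 mM Tris-HCl pH 7.5; nonspecific binding with 10 μM naloxone. Filtration and scintillation counting; Ki from IC50 by Cheng-Prusoff.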

Male Sprague-Dawley rats [6] = conditions: maximum pCO2 within 2 hours of administration, rat; for <60 mmHg @ 10X CFA MEMD: dose 10× CFA MEMD
[7] = sc, minimum dose at which maximal reversal of hind paw weight bearing (50±0.5%) was achieved, subcutaneous administration
[8] = dose 100× CFA MEMD, subcutaneous

Compound	Ki (μ-receptor [1])	EC50 (human μ opioid receptor [2])	Ki (μ-receptor [1]; hydrochloride)	minimal effective dose (Male Sprague-Dawley rats [3]; [7])	EC50 (human μ opioid receptor [4])	Ki (μ-receptor [5])	<60 mmHg @ 10X CFA MEMD (Male Sprague-Dawley rats [6]; subcutaneous)	<60 mmHg @ 100X CFA MEMD (Male Sprague-Dawley rats [6]; [8])	minimal effective dose (Male Sprague-Dawley rats [3]; po, minimum dose at which maximal reversal of hind paw weight bearing was achieved, dosed orally)	<60 mmHg @ 100X CFA MEMD (Male Sprague-Dawley rats [6]; dosed at 10 mg/kg)
COC1(c2cccc(C(N)=O)c2)C2CCCC1CN(C1CC3CCC(C1)O3)C2 (single isomer, unassigned) [Compound 16, hydrochloride]	< 1 nM	< 10 nM	–	–	–	–	–	–	–	–
COC1(c2ccnc(C(N)=O)c2)C2CCCC1CN(C1CC3CCC(C1)O3)C2 [Compound 12, 4-((1R,5S,9R)-3-((1R,3s,5S)-8-oxabicyclo[3.2.1]octan-3-yl)-9-methoxy-3-azabicyclo[3.3.1]nonan-9-yl)picolinamide hydrochloride]	–	10 to 75 nM	< 1 nM	–	–	–	–	–	–	–
COC1(c2cccc(C(N)=O)c2)C2CCCC1CN([C@@H](C)c1cnc[nH]1)C2 (stereo partly drawn) [Compound 19, 3-((1R,5S,9S)-3-((S)-1-(1H-imidazol-5-yl)ethyl)-9-methoxy-3-azabicyclo[3.3.1]nonan-9-yl)benzamide hydrochloride]	< 1 nM	< 10 nM	–	–	–	–	–	–	–	–
COC1(c2cccc(C(N)=O)c2)C2CCCC1CN([C@H](C)c1cnc[nH]1)C2 (stereo partly drawn) [Compound 20, 3-((1R,5S,9R)-3-((R)-1-(1H-imidazol-5-yl)ethyl)-9-methoxy-3-azabicyclo[3.3.1]nonan-9-yl)benzamide hydrochloride]	1 to 5 nM	10 to 75 nM	–	–	–	–	–	–	–	–
COC1(c2cccc(C(N)=O)c2)C2CCCC1CN(CC1(O)CC1)C2.Cl [Compound 46, 3-((1R,5S,9r)-3-((1-hydroxycyclopropyl)methyl)-9-methoxy-3-azabicyclo[3.3.1]nonan-9-yl)benzamide hydrochloride]	–	–	–	1 mg/kg	10 to 75 nM	< 1 nM	+ (resulted in a maximum pCO2 value of less than 60 mmHg within 2 hours of administration)	–	–	–
COC1(c2ccnc(C(N)=O)c2)C2CCCC1CN([C@@H]1CCCOC1)C2.Cl (stereo partly drawn) [Compound 60, 4-((1R,5S,9R)-9-methoxy-3-((R)-tetrahydro-2H-pyran-3-yl)-3-azabicyclo[3.3.1]nonan-9-yl)picolinamide hydrochloride]	–	–	–	0.3 mg/kg	> 75 nM	1 to 5 nM	+ (resulted in a maximum pCO2 value of less than 60 mmHg within 2 hours of administration)	+ (resulted in a maximum pCO2 value of less than 60 mmHg within 2 hours of administration)	–	–
COC1(c2ccnc(C(N)=O)c2)C2CCCC1CNC2.Cl [Compound 70, 4-((1R,5S,9r)-9-methoxy-3-azabicyclo[3.3.1]nonan-9-yl)picolinamide hydrochloride]	–	–	–	1 mg/kg	> 75 nM	1 to 5 nM	+ (resulted in a maximum pCO2 value of less than 60 mmHg within 2 hours of administration)	+ (resulted in a maximum pCO2 value of less than 60 mmHg within 2 hours of administration)	–	–
COC1(c2ccnc(C(N)=O)c2)C2CCCC1CN([C@H]1CCOC1)C2.Cl (stereo partly drawn) [Compound 79, 4-((1R,5S,9R)-9-methoxy-3-((R)-tetrahydrofuran-3-yl)-3-azabicyclo[3.3.1]nonan-9-yl)picolinamide hydrochloride]	–	–	–	0.3 mg/kg	10 to 75 nM	1 to 5 nM	+ (resulted in a maximum pCO2 value of less than 60 mmHg within 2 hours of administration)	− (resulted in a maximum pCO2 value of greater than 60 mmHg within 2 hours of administration)	–	–
CCCN1CC2CCCC(C1)C2(OC)c1ccnc(C(N)=O)c1.Cl [Compound 91, 4-((1R,5S,9r)-9-methoxy-3-propyl-3-azabicyclo[3.3.1]nonan-9-yl)picolinamide hydrochloride]	–	–	–	–	10 to 75 nM	1 to 5 nM	–	–	3 mg/kg	+ (dosed at 10 mg/kg) (resulted in a maximum pCO2 value of less than 60 mmHg within 2 hours of administration)
COC1(c2ccnc(C(N)=O)c2)C2CCCC1CN(Cc1cnn[nH]1)C2.Cl [Compound 108, 4-((1R,5S,9r)-3-((1H-1,2,3-triazol-5-yl)methyl)-9-methoxy-3-azabicyclo[3.3.1]nonan-9-yl)picolinamide hydrochloride]	–	–	–	0.3 mg/kg	10 to 75 nM	1 to 5 nM	+ (resulted in a maximum pCO2 value of less than 60 mmHg within 2 hours of administration)	+ (resulted in a maximum pCO2 value of less than 60 mmHg within 2 hours of administration)	–	–
COC1(c2cccc(C(N)=O)c2)C2CCCC1CN(CC1CCOCC1)C2.Cl [Compound 122, 3-((1R,5S,9r)-9-methoxy-3-((tetrahydro-2H-pyran-4-yl)methyl)-3-azabicyclo[3.3.1]nonan-9-yl)benzamide hydrochloride]	–	–	–	0.3 mg/kg	10 to 75 nM	1 to 5 nM	+ (resulted in a maximum pCO2 value of less than 60 mmHg within 2 hours of administration)	–	–	–
COC1(c2ccnc(C(N)=O)c2)C2CCCC1CN(Cc1cn(C)cn1)C2.Cl [Compound 123, 4-((1R,5S,9r)-9-methoxy-3-((1-methyl-1H-imidazol-4-yl)methyl)-3-azabicyclo[3.3.1]nonan-9-yl)picolinamide hydrochloride]	–	–	–	1 mg/kg	10 to 75 nM	1 to 5 nM	+ (resulted in a maximum pCO2 value of less than 60 mmHg within 2 hours of administration)	–	–	–
COC1(c2ccnc(C(N)=O)c2)C2CCCC1CN(Cc1c[nH]c3ccccc13)C2.Cl [Compound 126, 4-((1R,5S,9r)-3-((1H-indol-3-yl)methyl)-9-methoxy-3-azabicyclo[3.3.1]nonan-9-yl)picolinamide hydrochloride]	–	–	–	0.1 mg/kg	< 10 nM	< 1 nM	− (resulted in a maximum pCO2 value of greater than 60 mmHg within 2 hours of administration)	–	–	–
COC1(c2ccnc(C(N)=O)c2)C2CCCC1CN(CC1CCOCC1)C2.Cl [Compound 127, 4-((1R,5S,9r)-9-methoxy-3-((tetrahydro-2H-pyran-4-yl)methyl)-3-azabicyclo[3.3.1]nonan-9-yl)picolinamide hydrochloride]	–	–	–	0.1 mg/kg	10 to 75 nM	1 to 5 nM	+ (resulted in a maximum pCO2 value of less than 60 mmHg within 2 hours of administration)	+ (resulted in a maximum pCO2 value of less than 60 mmHg within 2 hours of administration)	–	–
COC1(c2cccc(C(N)=O)c2)C2CCCC1CN(C1CC3(COC3)C1)C2.O=C(O)CC(O)C(=O)O [Compound 133, 3-((1R,5S,9r)-9-methoxy-3-(2-oxaspiro[3.3]heptan-6-yl)-3-azabicyclo[3.3.1]nonan-9-yl)benzamide (S)-2-hydroxysuccinate]	–	–	–	1 mg/kg	< 10 nM	< 1 nM	+ (resulted in a maximum pCO2 value of less than 60 mmHg within 2 hours of administration)	–	–	–
COC1(c2cccc(C(N)=O)c2)C2CCCC1CN(Cc1cnc(C)[nH]1)C2 [Compound 149, 3-((1R,5S,9r)-9-methoxy-34(2-methyl-1H-imidazol-4-yl)methyl)-3-azabicyclo[3.3.1]nonan-9-yl)benzamide hydrochloride]	< 1 nM	< 10 nM	–	–	–	–	–	–	–	–
COC1(c2ccnc(C(N)=O)c2)C2CCCC1CN(C1CCC3(CC1)COC3)C2.O=C(O)CC(O)C(=O)O [Compound 158, 4-((1R,5S,9r)-9-methoxy-3-(2-oxaspiro[3.5]nonan-7-yl)-3-azabicyclo[3.3.1]nonan-9-yl)picolinamide (S)-2-hydroxysuccinate]	–	–	–	0.1 mg/kg	10 to 75 nM	1 to 5 nM	+ (resulted in a maximum pCO2 value of less than 60 mmHg within 2 hours of administration)	+ (resulted in a maximum pCO2 value of less than 60 mmHg within 2 hours of administration)	–	–
COC1(c2ccnc(C(N)=O)c2)C2CCCC1CN(CC1(F)CCOCC1)C2 (centres unmarked) [Compound 198]	> 5 nM	–	–	–	–	–	–	–	–	–
